Consider 3 compounds from ChEMBL document CHEMBL1137656, “Effects of serum on in vitro susceptibility testing of echinocandins” (Antimicrob Agents Chemother, 2007).

One data set has as its system Aspergillus flavus. Kind of data set: Antifungal activity against Aspergillus flavus isolate 0001-033 after 24 hrs by CLSI M38-A broth microdilution method in presence of 50% human serum. Type of data set: functional. Particulars: isolate 0001-033, 24 h. On the technique in general: Broth dilution looks for growth in wells or tubes with falling amounts of substance.

In the next data set the test system is Candida albicans. The experiment in a line: Ratio of MIC50 for Candida albicans isolate 0021-076 in presence of 50% human serum to MIC50 for Candida albicans isolate 0021-076 in presence of RPMI 1640 medium. Type of data set: functional.
The next data set has as its system Nakaseomyces glabratus. Kind of data set: Antifungal activity against Candida glabrata isolate 0022-012 after 24 hrs by CLSI M27-A2 broth microdilution method in presence of RPMI 1640 medium. Format: functional. Particulars: isolate 0022-012, 24 h.
The next data set has as its system Candida tropicalis. Kind of data set: Antifungal activity against Candida tropicalis isolate 0022-021 after 24 hrs by CLSI M27-A2 broth microdilution method in presence of 50% human serum. Particulars: isolate 0022-021, 24 h. Type of data set: functional.
The subject of data set [1] is Aspergillus fumigatus. Kind of data set: Ratio of MIC50 for Aspergillus fumigatus isolate 0002-0016 in presence of 50% human serum to MIC50 for Aspergillus fumigatus isolate 0002-0016 in presence of RPMI 1640 medium. Type of data set: functional.
Data set [2] concerns Aspergillus fumigatus. Kind of data set: Antifungal activity against Aspergillus fumigatus isolate 0020-018 after 24 hrs by CLSI M38-A broth microdilution method in presence of RPMI 1640 medium. Format: functional. Particulars: isolate 0020-018, 24 h.
The nature of data set [3]: Protein binding in human serum at 1 to 1000 ug/mL by scintillation counting. Type of data set: ADME, cell-free. Particulars: read-out: PB (converted).
Data set [4] is described as follows: Protein binding in mouse serum at 1 to 1000 ug/mL by scintillation counting. Format: ADME, cell-free. Particulars: read-out: PB (converted).

Numbered stars: 1 amine (or outer) side, 2 acyl side, 3 side chain; on linkers, the order of the positions; unused ones are H or OH. Bridge positions count the residues as written; N and C are the ends. Square brackets hold non-standard residues; d marks the D form. Peptide text beside a SMILES is read from it. * marks the point of attachment. hTyr(3S-OH,4S-OH,3'-OSO3H) = N[C@H](C(=O)O)[C@H](O)[C@@H](O)c1ccc(O)c(OS(=O)(=O)O)c1; pTerphenylCO(4''-OnC5H11) = CCCCCOc1ccc(-c2ccc(-c3ccc(C(=O)*)cc3)cc2)cc1; Orn(4R-OH,5R-OH) = O=C([C@H](C[C@@H](O)[C@@H](O)N[*:3])N[*:1])[*:2]; hTyr(3S-OH,4S-OH) = N[C@H](C(=O)O)[C@H](O)[C@@H](O)c1ccc(O)cc1; Pro(3S-OH,4S-Me) = C[C@H]1CN[C@H](C(=O)O)[C@H]1O; X1 = CCCCCOc1ccc(-c2cc(-c3ccc(C(=O)*)cc3)no2)cc1; Gln(3R-OH) = NC(=O)C[C@@H](O)[C@H](N)C(=O)O; Hyp = O=C(O)[C@@H]1C[C@@H](O)CN1

As a reminder, the MIC50 is an inhibitory concentration at the 50% level, which refers to growth in some studies and to a panel of isolates in others. In the case of `CCCCCOc1ccc(-c2ccc(-c3ccc(C(=O)N[C@H]4C[C@@H](O)[C@@H](O)NC(=O)[C@@H]5[C@@H](O)[C@@H](C)CN5C(=O)[C@H]([C@@H](C)O)NC(=O)[C@H]([C@H](O)[C@@H](O)c5ccc(O)cc5)NC(=O)[C@@H]5C[C@@H](O)CN5C(=O)[C@H]([C@@H](C)O)NC4=O)cc3)cc2)cc1` [ANIDULAFUNGIN] ({pTerphenylCO(4''-OnC5H11)}-[Orn(4R-OH,5R-OH)]T[Hyp][hTyr(3S-OH,4S-OH)]T[Pro(3S-OH,4S-Me)]; lactam 1-C), the MIC50 in the data set with Aspergillus flavus worked out at 128 µg/mL; in the data set on Nakaseomyces glabratus, 0.0313 µg/mL; in the data set with Candida tropicalis, 2 µg/mL; in the data set on Aspergillus fumigatus [2], 0.5 µg/mL. Further, the Ratio in the data set with Candida albicans is given as 256; in the data set with Aspergillus fumigatus [1], 64.
Regarding `CC[C@H](C)C[C@H](C)CCCCCCCCC(=O)N[C@H]1C[C@@H](O)[C@@H](NCCN)NC(=O)[C@@H]2[C@@H](O)CCN2C(=O)[C@H]([C@H](O)CCN)NC(=O)[C@H]([C@H](O)[C@@H](O)c2ccc(O)cc2)NC(=O)[C@@H]2C[C@@H](O)CN2C(=O)[C@H]([C@@H](C)O)NC1=O` [CASPOFUNGIN], the MIC50 is 128 µg/mL with Aspergillus flavus, 0.5 µg/mL with Nakaseomyces glabratus, 0.5 µg/mL in the data set with Candida tropicalis and 16 µg/mL in the data set on Aspergillus fumigatus [2]. Moreover, the fraction unbound in data set [3] and in data set [4] was 0.04 each time. The Ratio in the data set on Candida albicans was found to be 8; in the data set on Aspergillus fumigatus [1], 16.
Regarding `CCCCCOc1ccc(-c2cc(-c3ccc(C(=O)N[C@H]4C[C@@H](O)[C@@H](O)NC(=O)[C@@H]5[C@@H](O)[C@@H](C)CN5C(=O)[C@H]([C@H](O)CC(N)=O)NC(=O)[C@H]([C@H](O)[C@@H](O)c5ccc(O)c(OS(=O)(=O)O)c5)NC(=O)[C@@H]5C[C@@H](O)CN5C(=O)[C@H]([C@@H](C)O)NC4=O)cc3)no2)cc1` [MICAFUNGIN] (X1-[Orn(4R-OH,5R-OH)]T[Hyp][hTyr(3S-OH,4S-OH,3'-OSO3H)][Gln(3R-OH)][Pro(3S-OH,4S-Me)]; lactam 1-C), the MIC50 is 128 µg/mL in the data set on Aspergillus flavus, 0.0156 µg/mL in the data set on Nakaseomyces glabratus, 2 µg/mL with Candida tropicalis and 0.0156 µg/mL with Aspergillus fumigatus [2]. In addition, the Ratio is listed as 128 in the data set with Candida albicans and 64 with Aspergillus fumigatus [1].
